Assay results taken from patent US6156700A, “3-(1,2-Benzisothiazol- and isoxazol-5-yl)-2,4(1H,3H)-pyrimidinedione or thione and 3-(1,2-benzisothiazol- and isoxazol-5-yl)-4(3H)-pyrimidinone or thione herbicidal agents” (American Cyanmid Company, priority 1998, dated 2000).

Key:
Parameters in all cases: scale not given here
[1] = system: ECHORC Watergrass (Calif.); assay: Postemergence weed control, flooded paddy (Table IV); assay type: in vivo, Echinochloa oryzoides
Excerpt: (§1) Plastic containers containing weeds which are 3 to 5 cm tall and rice seedlings at the 1.5 to 2.5 leaf stage are flooded with water. The water is maintained at 1.5 to 3 cm above the soil surface for the duration of the experiment. Test compounds are applied as aqueous/acetone mixtures 50/50 v/v directly into the flood water to provide the equivalent of about 0.0313 to 0.500 kg/ha of active ingredient. The treated containers are placed on greenhouse benches and cared for in accordance with conventional greenhouse procedures. Three to four weeks after treatment, the test is terminated and each container is examined and herbicidal effect rated according to the rating system provided in Example 185. The compounds evaluated are reported by compound number given in Example 185.

CYPIR Rice Flatsedge = assay: as above; assay type: in vivo, Cyperus iria
Excerpt: as §1

CYPSE Flatsedge = assay: as above; assay type: in vivo, Cyperus serotinus
Excerpt: as §1

MOOVA Monochoria = assay: as above; assay type: in vivo, Monochoria vaginalis
Excerpt: as §1

[2] = system: SAGPY Arrowhead (Pygmaea); assay: as above; assay type: in vivo, Sagittaria pygmaea
Excerpt: as §1

ORYSAT Rice, Tebonnet = assay: Rice tolerance, flooded paddy (Table IV); assay type: in vivo, Oryza sativa; settings: crop tolerance
Excerpt: as §1

Compound | herbicidal effect rating ([1]; 0.1250 kg/ha) | herbicidal effect rating ([1]; 0.2500 kg/ha) | herbicidal effect rating (CYPIR Rice Flatsedge; 0.1250 kg/ha) | herbicidal effect rating (CYPIR Rice Flatsedge; 0.2500 kg/ha) | herbicidal effect rating (CYPSE Flatsedge; 0.1250 kg/ha) | herbicidal effect rating (CYPSE Flatsedge; 0.2500 kg/ha) | herbicidal effect rating (MOOVA Monochoria; 0.1250 kg/ha) | herbicidal effect rating (MOOVA Monochoria; 0.2500 kg/ha) | herbicidal effect rating ([2]; 0.1250 kg/ha) | herbicidal effect rating ([2]; 0.2500 kg/ha) | herbicidal effect rating (ORYSAT Rice, Tebonnet; 0.1250 kg/ha) | herbicidal effect rating (ORYSAT Rice, Tebonnet; 0.2500 kg/ha)
CCOC(=O)COc1ccc(C)cc1-c1nsc2ccc(-n3c(=O)cc(C(F)(F)F)n(C)c3=O)cc12 [Compound 49, Ethyl {{2-{5-[3,6-dihydro-3-methyl-2,6-dioxo-4-(trifluoromethyl)-1(2H)-pyrimidinyl]-1,2-benzisothiazol-3-yl}-p-tolyl}oxy}acetate] | 9.0 | 9.0 | 4.0 | 6.0 | 0.0 | 0.0 | 9.0 | 9.0 | 0.0 | 0.0 | 0.0 | 0.0
COC(=O)COc1ccc(C)cc1-c1noc2ccc(-n3c(=O)cc(C(F)(F)F)n(C)c3=O)c(Cl)c12 [Compound 261, Acetic acid,{{2-{4-chloro-5-[3,6-dihydro-3-methyl-2,6-dioxo-4-(trifluoromethyl)-1(2H)-pyrimidinyl]-1,2-benzisoxazol-3-yl}-p-tolyl}oxy}-, methyl ester] | 0.0 | 0.0 | 6.0 | 6.0 | 0.0 | 0.0 | 9.0 | 9.0 | 0.0 | 0.0 | 0.0 | 0.0
COc1c(-c2nsc3ccc(-n4c(=O)cc(C(F)(F)F)n(C)c4=O)cc23)ccc(C)c1C [Compound 267, 2,4(1H,3H)-Pyrimidinedione,3-[3-(2-methoxy-3,4-xylyl)-1,2-benzisothiazol-5-yl]-1-methyl-6-(trifluoromethyl)-] | 9.0 | 9.0 | 9.0 | 9.0 | 0.0 | 0.0 | 9.0 | 9.0 | 0.0 | 0.0 | 6.0 | 7.0
CCOc1cccc(-c2nsc3ccc(-n4c(=O)cc(C(F)(F)F)n(C)c4=O)cc23)c1 [Compound 327, 2,4(1H,3H)-Pyrimidinedione, 3-[3-(m-ethoxyphenyl)-1,2-benzisothiazol-5-yl]-1-methyl-6-(trifluoromethyl)-] | 9.0 | 9.0 | 9.0 | 9.0 | 0.0 | 2.0 | 9.0 | 9.0 | 4.0 | 4.0 | 5.0 | 4.0
CC(C)Oc1cccc(-c2nsc3ccc(-n4c(=O)cc(C(F)(F)F)n(C)c4=O)cc23)c1 [Compound 328, 2,4(1H,3H)-Pyrimidinedione, 3-[3-(m-isopropoxyphenyl)-1,2-benzisothiazol-5-yl]-1-methyl-6-(trifluoromethyl)-] | 9.0 | 9.0 | 9.0 | 9.0 | 6.0 | 6.0 | 9.0 | 9.0 | 2.0 | 6.0 | 4.0 | 4.0
COc1ccc(OC)c(-c2nsc3ccc(-n4c(=O)cc(C(F)(F)F)n(C)c4=O)cc23)c1 [Compound 333, 2,4(1H,3H)-Pyrimidinedione, 3-[3-(2,5-dimethoxyphenyl)-1,2-benzisothiazol-5-yl]-1-methyl-6-(trifluoromethyl)-] | 9.0 | 9.0 | 9.0 | 9.0 | 4.0 | 8.0 | 9.0 | 9.0 | 4.0 | 4.0 | 6.0 | 6.0
CON(C)C(=O)COc1ccccc1-c1nsc2ccc(-n3c(=O)cc(C(F)(F)F)n(C)c3=O)cc12 [Compound 354, Acetamide,2-{o-{5-[3,6-dihydro-3-methyl-2,6-dioxo-4-(trifluoromethyl)-1(2H)-pyrimidinyl]-1,2-benzisothiazol-3-yl}phenoxy}-N-methoxy-N-methyl-] | 9.0 | – | 9.0 | – | 9.0 | – | 9.0 | – | 9.0 | – | 6.0 | –
COC(=O)COc1ccc(C)cc1-c1noc2cc(F)c(-n3c(=O)cc(C(F)(F)F)n(C)c3=O)cc12 [Compound 359, Acetic acid, {{2-{5-[3,6-dihydro-3-methyl-2,6-dioxo-4-(trifluoromethyl)-1(2H)-pyrimidinyl]-6-fluoro-1,2-benzisoxazol-3-yl}-p-tolyl}oxy}-, methyl ester] | 6.0 | – | 9.0 | – | 0.0 | – | 9.0 | – | 0.0 | – | 4.0 | –
CC(C)S(=O)(=O)NC(=O)c1nsc2ccc(-n3c(=O)cc(C(F)(F)F)n(C)c3=O)cc12 [Compound 362, 1,2-Benzisothiazole-3-carboxamide,5-[3,6-dihydro-3-methyl-2,6-dioxo-4-(trifluoromethyl)-1(2H)-pyrimidinyl]-N-(isopropylsulfonyl)-] | 7.0 | 9.0 | 8.0 | 4.0 | 9.0 | 9.0 | 9.0 | 9.0 | 4.0 | 8.0 | 3.0 | 6.0
COCc1nsc2cc(F)c(-n3c(=O)cc(C(F)(F)F)n(C)c3=O)cc12 [Compound 378, 2,4(1H,3H)-Pyrimidinedione, 3-[6-fluoro-3-(methoxymethyl)-1,2-benzisothiazol-5-yl]-1-methyl-6-(trifluoromethyl)-] | 9.0 | – | 9.0 | – | 9.0 | – | 9.0 | – | 9.0 | – | 9.0 | –
COc1cc2c(cc1-c1nsc3ccc(-n4c(=O)cc(C(F)(F)F)n(C)c4=O)cc13)CCC2 [Compound 380, 2,4(1H,3H)-Pyrimidinedione, 3-[3-(6-methoxy-5-indanyl)-1,2-benzisothiazol-5-yl]-1-methyl-6-(trifluoromethyl)-] | 9.0 | 9.0 | 9.0 | 9.0 | 2.0 | 8.0 | 9.0 | 9.0 | 2.0 | 8.0 | 7.0 | 7.0
COc1cc(C)c(I)cc1-c1nsc2ccc(-n3c(=O)cc(C(F)(F)F)n(C)c3=O)cc12 [Compound 429, 2,4(1H,3H)-Pyrimidinedione,3-[3-(5-iodo-2-methoxy-p-tolyl)-1,2-benzisothiazol-5-yl]-1-methyl-6-(trifluoromethyl)-] | 6.0 | 9.0 | 7.0 | 9.0 | 0.0 | 0.0 | 7.0 | 7.0 | 0.0 | 0.0 | 2.0 | 2.0
Cc1ccc(OCC(=O)OCC2(c3ccccc3)CC2)c(-c2nsc3ccc(-n4c(=O)cc(C(F)(F)F)n(C)c4=O)cc23)c1 [Compound 517, Acetic acid, {{2-{5-[3,6-dihydro-3-methyl-2,6-dioxo-4-(trifluoromethyl)-1(2H)-pyrimidinyl]-1,2-benzisothiazol-3-yl}-p-tolyl}oxy}-, (1-phenylcyclopropyl)methyl ester] | 0.0 | 0.0 | 9.0 | 9.0 | 0.0 | – | – | – | – | – | 0.0 | 0.0
C#CCOC(=O)C(C)(C)Oc1ccc(C)cc1-c1nsc2ccc(-n3c(=O)cc(C(F)(F)F)n(C)c3=O)cc12 [Compound 528, Propionic acid, 2-{{2-{5-[3,6-dihydro-3-methyl-2,6-dioxo-4-(trifluoromethyl)-i(2H)-pyrimidinyl]-1,2-benzisothiazol-3-yl}-p-tolyl}oxy}-2-methyl-, 2-propynyl ester] | – | – | 6.0 | 6.0 | – | 9.0 | – | – | 0.0 | – | 2.0 | 3.0
